The record followed here is PMC11995724, “Antibiotic target discovery by integrated phenotypic and activity-based profiling of electrophilic fragments” (Cell chemical biology, 2025).

The structures appear in SMILES notation.

This series in a line: in vitro. As to conditions: human, hek293t cells.
As for `COc1ccc(NC(=O)C(C#N)=Cc2cccc(O)c2)cc1Cl` [9-C08, N-(3-chloro-4-methoxyphenyl)-2-cyano-3-(3-hydroxyphenyl)prop-2-enamide], the viability at 48 h, 25 µM worked out at 102%.

As to `CC(C)(C)c1ccc(C=C(C#N)C(=O)Nc2ccc(C(=O)O)cc2)cc1` [9-I21, 4-[3-(4-tert-butylphenyl)-2-cyanoprop-2-enamido]benzoic acid], the viability at 48 h, 25 µM stood at 128%.

Take `C=CC(=O)NCc1ccc(S(=O)(=O)NC2CC2)cc1` [2-P19, N-{[4-(cyclopropylsulfamoyl)phenyl]methyl}prop-2-enamide]: the viability at 48 h, 25 µM was found to be 62.3%.

Take `C=CC(=O)NC1CN(C(C)=O)C1` [1-N22, N-(1-acetylazetidin-3-yl)prop-2-enamide]: the viability at 48 h, 25 µM stood at 73.1%.

As for `O=C(CCl)NCC(=O)Nc1ccc(F)c(F)c1` [4-L16, 2-chloro-N-{[(3,4-difluorophenyl)carbamoyl]methyl}acetamide], the viability at 48 h, 25 µM was found to be 1.48%.

For the molecule `C=CC(=O)Nc1nc2c(s1)-c1cc(OC)ccc1CC2` [1-J21, N-{8-methoxy-4H,5H-naphtho[2,1-d][1,3]thiazol-2-yl}prop-2-enamide], the viability at 48 h, 25 µM worked out at 118%.

Turning to `C=CC(=O)N(Cc1c(C)nn(CC)c1C)c1ccc2c(c1)COC2` [2-G13, N-(1,3-dihydro-2-benzofuran-5-yl)-N-[(1-ethyl-3,5-dimethyl-1H-pyrazol-4-yl)methyl]prop-2-enamide], the viability at 48 h, 25 µM was 80.2%.

As to `C=CC(=O)N1CCC(C(=O)NCC2([S+](C)[O-])CCC2)CC1` (stereo not shown) [2-D18, N-[(1-methanesulfinylcyclobutyl)methyl]-1-(prop-2-enoyl)piperidine-4-carboxamide], the viability at 48 h, 25 µM was determined as 73.4%.

With `CCCSc1nsc(NC(=O)CCl)n1` [4-G15, 2-chloro-N-[3-(propylsulfanyl)-1,2,4-thiadiazol-5-yl]acetamide], the viability at 48 h, 25 µM came to 17.4%.

For `C=CC(=O)NCc1ccnn1CC(F)(F)F` [1-O18, N-{[1-(2,2,2-trifluoroethyl)-1H-pyrazol-5-yl]methyl}prop-2-enamide], the viability at 48 h, 25 µM worked out at 168%.

Turning to `COc1cc(C=C(C#N)C(=O)NC(C)C)sn1` [9-N12, 2-cyano-3-(3-methoxy-1,2-thiazol-5-yl)-N-(propan-2-yl)prop-2-enamide], the viability at 48 h, 25 µM amounted to 115%.

Consider `CC(Cl)C(=O)N1CCCC1c1nc(-c2ccccc2)c(C(C)C)o1` (stereo not shown) [7-H11, 2-chloro-1-{2-[4-phenyl-5-(propan-2-yl)-1,3-oxazol-2-yl]pyrrolidin-1-yl}propan-1-one], for which the viability at 48 h, 25 µM is 79.2%.

In the case of `O=C(CCl)Nc1ccc(Cl)cc1F` [4-E03, 2-chloro-N-(4-chloro-2-fluorophenyl)acetamide], the viability at 48 h, 25 µM amounted to 0.433%.

Take `O=C(CCl)NCc1ccccc1C(F)(F)F` [6-K10, 2-chloro-N-{[2-(trifluoromethyl)phenyl]methyl}acetamide]: the viability at 48 h, 25 µM worked out at 2.67%.

For the molecule `CC(Cl)C(=O)N1CCCC1c1nccc(C(F)(F)F)n1` (stereo not shown) [7-B11, 2-chloro-1-{2-[4-(trifluoromethyl)pyrimidin-2-yl]pyrrolidin-1-yl}propan-1-one], the viability at 48 h, 25 µM was 106%.

For the molecule `Cc1c(C#N)c(NC(=O)CCl)n(Cc2ccc(F)cc2)c1C` [4-O21, 2-chloro-N-{3-cyano-1-[(4-fluorophenyl)methyl]-4,5-dimethyl-1H-pyrrol-2-yl}acetamide], the viability at 48 h, 25 µM was determined as 0.102%.

For the molecule `O=C(CCl)N(Cc1cccs1)C1CCS(=O)(=O)C1` (stereo not shown) [4-L12, 2-chloro-N-(1,1-dioxo-1lambda6-thiolan-3-yl)-N-[(thiophen-2-yl)methyl]acetamide], the viability at 48 h, 25 µM turned out to be 1.65%.

As to `Cc1ccsc1-c1nnc(NC(=O)CCl)o1` [6-K03, 2-chloro-N-[5-(3-methylthiophen-2-yl)-1,3,4-oxadiazol-2-yl]acetamide], the viability at 48 h, 25 µM amounted to 72.7%.

`C=CC(=O)NCC(c1c(F)cccc1F)N1CC(C)OC(C)C1` (stereo not shown) [1-I13, N-[2-(2,6-difluorophenyl)-2-(2,6-dimethylmorpholin-4-yl)ethyl]prop-2-enamide]: the viability at 48 h, 25 µM was determined as 72.5%.

`C=CC(=O)N(C)CC(=O)N1CCCCC1c1nc(C)no1` (stereo not shown) [3-K17, N-methyl-N-{2-[2-(3-methyl-1,2,4-oxadiazol-5-yl)piperidin-1-yl]-2-oxoethyl}prop-2-enamide]: the viability at 48 h, 25 µM is 47.9%.

As for `C=CC(=O)Nc1ccc(C(=O)N2CCC(C(C)C)CC2)cc1` [3-B15, N-{4-[4-(propan-2-yl)piperidine-1-carbonyl]phenyl}prop-2-enamide], the viability at 48 h, 25 µM stood at 27.5%.

As to `O=C(CCl)N(CCCO)C1CCCc2ccccc21` (stereo not shown) [7-J14, 2-chloro-N-(3-hydroxypropyl)-N-(1,2,3,4-tetrahydronaphthalen-1-yl)acetamide], the viability at 48 h, 25 µM was 0.693%.

For the molecule `C=CC(=O)N1CCC(C(=O)N2CCN(CC(C)C)C(=O)C2C)CC1` (stereo not shown) [2-B08, 3-methyl-1-(2-methylpropyl)-4-[1-(prop-2-enoyl)piperidine-4-carbonyl]piperazin-2-one], the viability at 48 h, 25 µM is 83.8%.

As to `Cc1ccccc1N(CC(=O)N1CCCCC1)C(=O)C(C)Cl` (stereo not shown) [7-G20, 2-chloro-N-(2-methylphenyl)-N-[2-oxo-2-(piperidin-1-yl)ethyl]propanamide], the viability at 48 h, 25 µM was 70.7%.

`CS(=O)(=O)N1CCc2cc(C(=O)CCl)ccc21` [10-B19, 2-chloro-1-(1-methanesulfonyl-2,3-dihydro-1H-indol-5-yl)ethan-1-one]: the viability at 48 h, 25 µM came to 7.21%.

Consider `C=CC(=O)NCCc1ccnn1C` [2-O17, N-[2-(1-methyl-1H-pyrazol-5-yl)ethyl]prop-2-enamide], for which the viability at 48 h, 25 µM was found to be 178%.

As to `CC(Cl)C(=O)NC(C)(C(N)=O)c1cccc(Cl)c1` (stereo not shown) [5-J17, 2-(3-chlorophenyl)-2-(2-chloropropanamido)propanamide], the viability at 48 h, 25 µM is 125%.

As to `O=C(CCl)NC1CCCCCC1` [5-H16, 2-chloro-N-cycloheptylacetamide], the viability at 48 h, 25 µM stood at 17.7%.

Take `C=CC(=O)NCC1CNC(=O)c2ccccc21` (stereo not shown) [2-F17, N-[(1-oxo-1,2,3,4-tetrahydroisoquinolin-4-yl)methyl]prop-2-enamide]: the viability at 48 h, 25 µM turned out to be 54.8%.

Consider `Cc1cc(C(=O)CCl)c(C)n1-c1ccc(C(F)(F)F)cc1` [10-J14, 2-chloro-1-{2,5-dimethyl-1-[4-(trifluoromethyl)phenyl]-1H-pyrrol-3-yl}ethan-1-one], for which the viability at 48 h, 25 µM was 0.425%.

Regarding `Cc1ccc(CNC(=O)C(C)Cl)cc1` (stereo not shown) [5-O03, 2-chloro-N-[(4-methylphenyl)methyl]propanamide], the viability at 48 h, 25 µM was 94.7%.

Consider `Cn1c(CNC=C(C#N)C(=O)Nc2ccccc2)cc(=O)n(C)c1=O` [9-G21, 2-cyano-3-{[(1,3-dimethyl-2,6-dioxo-1,2,3,6-tetrahydropyrimidin-4-yl)methyl]amino}-N-phenylprop-2-enamide], for which the viability at 48 h, 25 µM was 115%.

For the molecule `C=CC(=O)N1CCC(C(=O)NCc2ncccc2OC)CC1` [3-H05, N-[(3-methoxypyridin-2-yl)methyl]-1-(prop-2-enoyl)piperidine-4-carboxamide], the viability at 48 h, 25 µM was determined as 73.5%.

Consider `C=CC(=O)N1CCC(NC(C)=O)(c2noc(C)n2)C1` (stereo not shown) [2-G16, N-[3-(5-methyl-1,2,4-oxadiazol-3-yl)-1-(prop-2-enoyl)pyrrolidin-3-yl]acetamide], for which the viability at 48 h, 25 µM came to 94.8%.
